28 compounds from ChEMBL document CHEMBL1201862, “PubChem BioAssay data set” (2004) can be followed below.

Test systems include BT-549; Hs-578T; DLD-1; HOP-18; LXFL 529; M19-MEL; SNB-78; XF498.
Common to all, as to experiment: NCI tumour cell line growth inhibition, 48 h

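Values below derive from 48-hour exposures of cells grown in 96-well plates, with endpoints linearly interpolated between the two concentrations bracketing the appropriate inhibition level. At the GI50, growth is halved.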 The source made the active and inactive calls. No stated cut-off is given here; in the data, active = GI50 up to about 1.1 µM and inactive = higher.

For the compound `CCCCCCCCCCCC(=O)N(CCCCCCCCC)CC(O)C(O)C(OC1OC(CO)C(O)C(O)C1O)C(O)CO` (centres undefined), the GI50 is 19.4 µM (inactive) with BT-549 and 35.3 µM (inactive) in the assay with Hs-578T.
Regarding `CCN(CC)CCNc1ccc2nnn3c4ccc(OCCN(CC)CC)cc4c(=O)c1c23`, the GI50 in the assay on BT-549 and in the assay with Hs-578T was > 100 µM (inactive) each time.
`COc1cccc(NC(=O)CC(=O)N2N=C(C)C(/N=N/c3ccc(C(=O)O)cc3)C2=O)c1` (centres undefined): the GI50 in the assay on BT-549 and in the assay on Hs-578T was > 100 µM (inactive) throughout.
For the compound `O=C1c2ccccc2-c2nc(/C=C/c3ccccc3)cc3c2c1nc1ccccc13`, the figures for the GI50 with BT-549 and in the assay with Hs-578T were 36.8 µM (inactive) and 12.3 µM (inactive), respectively.
With `COc1c2c(cc3c1OCO3)[C@]13C=C[C@H](OC)C[C@H]1N(C2)CC3O` (some centres undefined), the GI50 in the assay with BT-549 and in the assay on Hs-578T was > 100 µM (inactive) in each case.
With `COc1cc(O)c2c(=O)c(O)c(-c3ccc(O)c(OC)c3)oc2c1` [RHAMNAZIN], in the assay with BT-549, the GI50 is 2 µM (inactive).
Consider `OC(Cn1cncn1)(Cn1cncn1)c1ccc(Cl)cc1Cl`, for which the GI50 in the assay on DLD-1, in the assay with HOP-18, in the assay on LXFL 529, in the assay with M19-MEL and with SNB-78 was > 100 µM (inactive) in each case.
`C=C1CN=C(Nc2ccc(Cl)cc2)S1`: the GI50 with Hs-578T is > 100 µM (inactive).
`O=C(NC(Cc1ccccc1)C(=O)CCl)OCc1ccccc1` (centres undefined): the GI50 was 9.64 µM (inactive) in the assay on DLD-1; 11.7 µM (inactive) in the assay on HOP-18; 3.6 µM (inactive) with LXFL 529; 13.7 µM (inactive) in the assay on M19-MEL; 24.8 µM (inactive) with SNB-78.
In the case of `c1ccc(C(c2cccc3c2ccc2ccccc23)C(c2ccccc2)c2cccc3c2ccc2ccccc23)cc1` (centres undefined), the GI50 in the assay with BT-549 and with Hs-578T was > 100 µM (inactive) in each case.
`NC(=O)c1c(NC=O)ncn1C1OCC(O)C(O)C1O` (centres undefined): the GI50 in the assay on BT-549 and in the assay with Hs-578T was > 100 µM (inactive) in each case.
For `C[B@@-]1(c2ccc(C(F)(F)F)cc2)N[C@@H](Cc2ccccc2)C(=O)O1`, in the assay on BT-549, the GI50 is > 100 µM (inactive).
Turning to `COCC(=O)[C@]1(O)Cc2c(O)c3c(c(O)c2[C@@H](OC2CC(N)C(O)C(C)O2)C1)C(=O)c1c(OC)cccc1C3=O` (some centres undefined), the GI50 was 0.161 µM (active) in the assay on BT-549; 0.0532 µM (active) with DLD-1; < 0.01 µM (active) with Hs-578T; 0.0713 µM (active) with LXFL 529; 0.0676 µM (active) with M19-MEL; 0.278 µM (active) in the assay with SNB-78. Moreover, the GI50 with XF498 was 0.0573 µM (active).
For the compound `Cc1coc2c1C(=O)C(=O)c1ccccc1-2`, the GI50 was 1.98 µM (inactive) in the assay on DLD-1, < 0.01 µM (active) with HOP-18, 0.403 µM (active) with LXFL 529 and 1.73 µM (inactive) in the assay on SNB-78.
For the compound `Cc1nc2c(=O)[nH]c(=O)n(C)c2[nH]c1=O.c1ccncc1`, the GI50 with DLD-1, with LXFL 529 and with M19-MEL was > 100 µM (inactive) throughout.
As for `CNS(=O)(=O)NN(C)S(=O)(=O)c1ccc(C)cc1`, the GI50 in the assay with DLD-1 and in the assay with M19-MEL was > 100 µM (inactive) throughout.
On to `C=CC[C@@]1(C(=O)OC)[C@H](Sc2ccccc2)C1(C)C`, for which the GI50 was 46 µM (inactive) in the assay with BT-549 and 55.6 µM (inactive) with Hs-578T.
Take `CCOC(=O)NC(Nc1ccc(C(=O)O)cc1)(C(F)(F)F)C(F)(F)F`: the GI50 with BT-549 and in the assay with Hs-578T was > 100 µM (inactive) throughout.
For `c1ccc2c(c1)NC(C1OC3CCCN3C1C1Nc3ccccc3S1)S2` (centres undefined), the GI50 in the assay with BT-549 is 78.2 µM (inactive); in the assay with Hs-578T it was > 100 µM (inactive).
Turning to `CC(=O)NC(Cc1ccccc1)NC(=O)O` (centres undefined), the GI50 with BT-549 was > 100 µM (inactive).
In the case of `COc1ccc(C2C(Cl)C(=O)N2NC(=O)Cc2ccccc2)cc1OC` (centres undefined), the GI50 in the assay with DLD-1, with HOP-18, in the assay on M19-MEL, in the assay on SNB-78 and in the assay on XF498 was > 100 µM (inactive) in each case.
For the compound `Cc1csc(-c2cn(C)c3c2C(=O)C(=N)C=C3O)n1`, the figures for the GI50 in the assay on BT-549 and with Hs-578T were 44.9 µM (inactive) and 3.86 µM (inactive), respectively.
For `CC(C)=CC(Cc1ccccc1)S(=O)(=O)c1nc2ccccc2s1` (centres undefined), in that order: 14.6 µM (inactive) and 29.6 µM (inactive).
`CNc1ccc2nc(-c3ccc(OC(=O)N(C)C)cc3)cn2c1`: the figures for the GI50 with BT-549 and in the assay with Hs-578T were 17.8 µM (inactive) and 41.2 µM (inactive), respectively.
For the compound `COc1cc2c3c(c1OC)Oc1ccc(cc1)CC1c4c(cc(OC)c(OC)c4Oc4ccc(cc4)CC3N(C)CC2)CCN1C` (centres undefined), the GI50 in the assay on DLD-1 was 29.2 µM (inactive); with HOP-18, 25.9 µM (inactive); in the assay with LXFL 529, 20.6 µM (inactive); in the assay with M19-MEL, 17.3 µM (inactive).
Take `OC[C@H]1CCCC1O` (some centres undefined): in the assay on BT-549, the GI50 is > 100 µM (inactive).
`Cc1nnc(N)s/c1=N/O`: the GI50 in the assay with BT-549 and with Hs-578T was > 100 µM (inactive) each time.
For the compound `C=C1CCN2CC[C@@H](OC(=O)/C(C)=C\C)[C@@H]12`, the GI50 in the assay with Hs-578T is > 100 µM (inactive).
